Reference: patent publication US6124323A, “4-substituted piperidine analogs and their use as subtype selective NMDA receptor antagonists” (Warner-Lambert Company, priority 1998, dated 2000)
Counter-ions that a name gives are not always drawn. Like-named read-outs stand apart in the source and are kept apart here.

How the values were obtained:
Type in all cases: cell-based
[1] = molecular target: T1, NMDA receptor subunits 1A/2A (Rattus norvegicus, UniProt P35439+Q00959); assay: Electrophysiological assay at NMDA receptor subunits expressed in Xenopus oocytes, 1A/2A; conditions: glutamate 100 μm and glycine 1-100 μm
T1 construct: expressed in transfected cells; host or cells: Xenopus laevis oocytes (cRNA injection; clones from Dr. P. H. Seeburg)
Experimental: (§1) Many of the properties of native NMDA receptors are seen in recombinant homomeric NR1 receptors. These properties are altered by the NR2 subunits. Recombinant NMDA receptors expressed in Xenopus oocytes have been studied by voltage-clamp recording, as has developmental and regional expression of the mRNAs encoding NMDA receptor subunits. Electrophysiological assays were utilized to characterize the actions of compounds at NMDA receptors expressed in Xenopus oocytes. The compounds were assayed at four subunit combinations of cloned rat NMDA receptors, corresponding to three putative NMDA receptor subtypes [Moriyoshi, et al. Nature 1991, 354, 31-37; Monyer et al, Science 1992, 256, 1217-1221; Kutsuwada et al, Nature 1992, 358, 36-41; Sugihara et al, Biochem. Biophys Res. Commun. 1992, 185, 826-832].
(§2) Electrophysiological Assays at NMDA Receptor Subunits
(§3) Preparation of RNA. cDNA clones encoding the NR1A, NR2A, NR2B, NR2C and NR2D rat NMDA receptor subtypes were provided by Dr. P. H. Seeburg (see, Moriyoshi et al., Nature (Lond.) 354:31-37 (1991); Kutsuwada et al., Nature (Lond.) 358:36-41 (1992) Monyer et al., Science (Washington, D.C.) 256:1217-1221 (1992); Ikeda et al., FEBS Lett. 313:34-38 (1992); Ishii et al., J. Biol. Chem. 268:2836-2843 (1993) for details of these clones or their mouse homologs). The clones were transformed into appropriate host bacteria and plasmid preparations were made with conventional DNA purification techniques. A sample of each clone was linearized by restriction enzyme digestion and cRNA was synthesized with T3 RNA polymerase. The cRNA was diluted to 400 ng/μl and stored in 1 μl aliquots at -80° C. until injection.
(§4) The Xenopus oocyte expression system. Mature female Xenopus laevis were anaesthetized (20-40 min) using 0.15% 3-aminobenzoic acid ethyl ester (MS-222) and 2-4 ovarian lobes were surgically removed. Oocytes at developmental stages IV-VI (Dumont, J. N., J. Morphol. 136:153-180 (1972)), were dissected from the ovary still surrounded by enveloping ovarian tissues. Follicle-enclosed oocytes were micro-injected with 1:1 mixtures of cRNA:NR1A+NR2A, 2B, 2C or 2D; injecting ~2,5, or 20 ng of RNA encoding each receptor subunit. NR1A encoding cRNA was injected alone at ~20 ng. Oocytes were stored in Barth's medium containing (in mM):NaCl, 88; KCl, 1; CaCl2, 0.41; Ca(NO3)2, 0.33; MgSO4, 0.82 NaHCO3, 2.4; HEPES 5, pH 7.4, with 0.1 mg/ml gentamicin sulphate. While oocytes were still surrounded by enveloping ovarian tissues the Barth's medium was supplemented with 0.1% bovine serum. Oocytes were defolliculated 1-2 days following injections by treatment with collagenase (0.5 mg/ml Sigma Type I for 0.5-1 hr) (Miledi and Woodward, J. Physiol. (Lond.) 416:601-621 (1989)) and subsequently stored in serum-free medium.
(§5) Electrical recordings were made using a conventional two-electrode voltage clamp (Dagan TEV-200) over periods ranging between 3-21 days following injection. (Woodward et al., Mol. Pharmacol. 41: 89-103 (1992)). Oocytes were placed in a 0.1 ml recording chamber continuously perfused (5-15 ml min^-1 ) with frog Ringer's solution containing (in mM):NaCl, 115; KCl, 2; CaCl2, 1.8; HEPES, 5; pH 7.4. Drugs were applied by bath perfusion. Using oocytes expressing different subunit combinations of NMDA receptor, NMDA currents were activated by co-application of glutamate (100 μm) and glycine (1-100 μm). Inhibitory potency of the novel antagonists was assessed on responses elicited by fixed concentrations of glutamate and glycine, by measuring reductions in current induced by progressively increasing concentrations of antagonist. Concentration-inhibition curves were fit with equation 1.
(§6) I/Icontrol =1/(1+([antagonist]/10^-pIC50)^n) Eq. 1
(§7) in which Icontrol is the current evoked by agonists alone, pIC50 =-log IC50, IC50 is the concentration of antagonist that produces half maximal inhibition, and n is the slope factor. (De Lean et al., Am. J. Physiol. 235:E97-102 (1978)). […]

[2] = molecular target: T2, NMDA receptor subunits 1A/2B (Rattus norvegicus, UniProt P35439+Q00960); assay: Electrophysiological assay at NMDA receptor subunits expressed in Xenopus oocytes, 1A/2B
T2 construct: expressed in transfected cells; host or cells: Xenopus laevis oocytes (cRNA injection; clones from Dr. P. H. Seeburg)
Experimental: as §1, §2, §3, §4, §5, §6, §7

[3] = molecular target: T3, NMDA receptor subunits 1A/2C (Rattus norvegicus, UniProt P35439+Q00961); assay: Electrophysiological assay at NMDA receptor subunits expressed in Xenopus oocytes, 1A/2C
T3 construct: expressed in transfected cells; host or cells: Xenopus laevis oocytes (cRNA injection; clones from Dr. P. H. Seeburg)
Experimental: as §1, §2, §3, §4, §5, §6, §7

[4] = Xenopus oocytes, glutamate 100 μm and glycine 1-100 μm, read-out: Subunits IC50, 1A/2B
[5] = Xenopus oocytes, glutamate 100 μm and glycine 1-100 μm, read-out: Subunits IC50, 1A/2C

T2 sequence (Q00960 27-1482, other chains not shown): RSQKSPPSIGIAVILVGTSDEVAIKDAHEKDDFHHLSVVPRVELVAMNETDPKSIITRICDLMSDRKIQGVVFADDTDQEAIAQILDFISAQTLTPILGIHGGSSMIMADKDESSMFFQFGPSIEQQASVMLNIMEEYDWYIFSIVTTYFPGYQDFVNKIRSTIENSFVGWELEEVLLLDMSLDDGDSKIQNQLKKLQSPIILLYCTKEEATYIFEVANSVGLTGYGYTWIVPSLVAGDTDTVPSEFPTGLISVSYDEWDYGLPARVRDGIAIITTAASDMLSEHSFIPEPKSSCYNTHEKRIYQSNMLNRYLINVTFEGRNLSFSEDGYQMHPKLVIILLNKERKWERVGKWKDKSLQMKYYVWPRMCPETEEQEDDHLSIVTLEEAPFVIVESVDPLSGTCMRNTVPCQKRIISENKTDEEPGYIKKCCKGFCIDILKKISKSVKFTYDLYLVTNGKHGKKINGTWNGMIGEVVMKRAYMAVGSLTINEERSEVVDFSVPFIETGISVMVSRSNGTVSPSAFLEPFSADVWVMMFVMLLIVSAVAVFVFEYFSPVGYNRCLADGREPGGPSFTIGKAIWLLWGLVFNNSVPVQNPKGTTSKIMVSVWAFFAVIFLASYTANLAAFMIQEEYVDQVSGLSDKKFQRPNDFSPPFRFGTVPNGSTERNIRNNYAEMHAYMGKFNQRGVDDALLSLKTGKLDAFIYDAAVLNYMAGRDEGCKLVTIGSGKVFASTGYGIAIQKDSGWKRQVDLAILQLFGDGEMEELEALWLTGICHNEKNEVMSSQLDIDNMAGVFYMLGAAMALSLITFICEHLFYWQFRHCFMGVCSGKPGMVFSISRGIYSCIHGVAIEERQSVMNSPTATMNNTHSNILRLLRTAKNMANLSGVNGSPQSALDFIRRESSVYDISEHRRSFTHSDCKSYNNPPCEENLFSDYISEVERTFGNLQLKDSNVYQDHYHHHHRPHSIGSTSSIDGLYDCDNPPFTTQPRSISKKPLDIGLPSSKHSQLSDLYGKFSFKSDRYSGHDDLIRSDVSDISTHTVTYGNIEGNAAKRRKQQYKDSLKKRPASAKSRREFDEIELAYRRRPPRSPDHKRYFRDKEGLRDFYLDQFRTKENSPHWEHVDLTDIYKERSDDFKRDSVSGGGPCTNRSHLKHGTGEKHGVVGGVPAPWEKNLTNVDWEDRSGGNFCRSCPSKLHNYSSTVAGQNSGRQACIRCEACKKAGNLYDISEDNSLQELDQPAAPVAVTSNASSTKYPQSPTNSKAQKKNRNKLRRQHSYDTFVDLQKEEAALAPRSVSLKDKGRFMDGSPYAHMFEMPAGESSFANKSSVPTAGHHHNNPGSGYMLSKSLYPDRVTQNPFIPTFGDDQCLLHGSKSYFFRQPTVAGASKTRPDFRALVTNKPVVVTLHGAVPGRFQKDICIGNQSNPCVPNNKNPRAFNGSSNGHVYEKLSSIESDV
T3 sequence (Q00961 20-1237, other chains not shown): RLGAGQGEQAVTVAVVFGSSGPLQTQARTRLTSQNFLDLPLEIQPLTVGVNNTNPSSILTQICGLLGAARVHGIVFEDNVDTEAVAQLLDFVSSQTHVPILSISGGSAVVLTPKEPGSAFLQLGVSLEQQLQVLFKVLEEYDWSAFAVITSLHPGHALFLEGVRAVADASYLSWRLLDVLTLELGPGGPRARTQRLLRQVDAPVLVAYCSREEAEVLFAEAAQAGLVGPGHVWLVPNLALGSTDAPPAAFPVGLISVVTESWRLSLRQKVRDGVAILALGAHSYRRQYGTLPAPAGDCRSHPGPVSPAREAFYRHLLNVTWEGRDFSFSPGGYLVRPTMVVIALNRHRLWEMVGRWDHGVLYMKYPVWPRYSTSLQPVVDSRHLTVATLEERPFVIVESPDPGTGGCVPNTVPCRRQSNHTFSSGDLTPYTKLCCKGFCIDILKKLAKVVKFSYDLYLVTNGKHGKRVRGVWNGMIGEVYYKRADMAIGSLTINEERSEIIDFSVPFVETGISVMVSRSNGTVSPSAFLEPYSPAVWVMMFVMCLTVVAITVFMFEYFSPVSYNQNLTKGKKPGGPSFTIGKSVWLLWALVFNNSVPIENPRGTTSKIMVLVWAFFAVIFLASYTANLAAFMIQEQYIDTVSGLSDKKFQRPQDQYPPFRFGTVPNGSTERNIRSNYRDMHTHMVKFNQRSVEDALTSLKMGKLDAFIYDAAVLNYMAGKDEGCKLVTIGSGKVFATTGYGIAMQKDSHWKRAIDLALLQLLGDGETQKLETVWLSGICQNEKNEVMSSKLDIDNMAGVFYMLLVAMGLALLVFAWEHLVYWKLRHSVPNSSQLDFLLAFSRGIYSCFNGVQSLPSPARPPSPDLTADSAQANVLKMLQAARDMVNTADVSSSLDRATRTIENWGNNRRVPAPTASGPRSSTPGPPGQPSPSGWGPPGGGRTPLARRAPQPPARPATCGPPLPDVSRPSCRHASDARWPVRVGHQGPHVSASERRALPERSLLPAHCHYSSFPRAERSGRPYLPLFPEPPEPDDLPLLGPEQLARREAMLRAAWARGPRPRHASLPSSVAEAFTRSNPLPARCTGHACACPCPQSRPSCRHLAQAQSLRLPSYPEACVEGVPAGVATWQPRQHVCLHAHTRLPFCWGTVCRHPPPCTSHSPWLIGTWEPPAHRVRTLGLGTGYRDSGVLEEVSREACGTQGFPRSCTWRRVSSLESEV
T1 sequence (Q00959 20-1464 limits assumed, other chains not shown): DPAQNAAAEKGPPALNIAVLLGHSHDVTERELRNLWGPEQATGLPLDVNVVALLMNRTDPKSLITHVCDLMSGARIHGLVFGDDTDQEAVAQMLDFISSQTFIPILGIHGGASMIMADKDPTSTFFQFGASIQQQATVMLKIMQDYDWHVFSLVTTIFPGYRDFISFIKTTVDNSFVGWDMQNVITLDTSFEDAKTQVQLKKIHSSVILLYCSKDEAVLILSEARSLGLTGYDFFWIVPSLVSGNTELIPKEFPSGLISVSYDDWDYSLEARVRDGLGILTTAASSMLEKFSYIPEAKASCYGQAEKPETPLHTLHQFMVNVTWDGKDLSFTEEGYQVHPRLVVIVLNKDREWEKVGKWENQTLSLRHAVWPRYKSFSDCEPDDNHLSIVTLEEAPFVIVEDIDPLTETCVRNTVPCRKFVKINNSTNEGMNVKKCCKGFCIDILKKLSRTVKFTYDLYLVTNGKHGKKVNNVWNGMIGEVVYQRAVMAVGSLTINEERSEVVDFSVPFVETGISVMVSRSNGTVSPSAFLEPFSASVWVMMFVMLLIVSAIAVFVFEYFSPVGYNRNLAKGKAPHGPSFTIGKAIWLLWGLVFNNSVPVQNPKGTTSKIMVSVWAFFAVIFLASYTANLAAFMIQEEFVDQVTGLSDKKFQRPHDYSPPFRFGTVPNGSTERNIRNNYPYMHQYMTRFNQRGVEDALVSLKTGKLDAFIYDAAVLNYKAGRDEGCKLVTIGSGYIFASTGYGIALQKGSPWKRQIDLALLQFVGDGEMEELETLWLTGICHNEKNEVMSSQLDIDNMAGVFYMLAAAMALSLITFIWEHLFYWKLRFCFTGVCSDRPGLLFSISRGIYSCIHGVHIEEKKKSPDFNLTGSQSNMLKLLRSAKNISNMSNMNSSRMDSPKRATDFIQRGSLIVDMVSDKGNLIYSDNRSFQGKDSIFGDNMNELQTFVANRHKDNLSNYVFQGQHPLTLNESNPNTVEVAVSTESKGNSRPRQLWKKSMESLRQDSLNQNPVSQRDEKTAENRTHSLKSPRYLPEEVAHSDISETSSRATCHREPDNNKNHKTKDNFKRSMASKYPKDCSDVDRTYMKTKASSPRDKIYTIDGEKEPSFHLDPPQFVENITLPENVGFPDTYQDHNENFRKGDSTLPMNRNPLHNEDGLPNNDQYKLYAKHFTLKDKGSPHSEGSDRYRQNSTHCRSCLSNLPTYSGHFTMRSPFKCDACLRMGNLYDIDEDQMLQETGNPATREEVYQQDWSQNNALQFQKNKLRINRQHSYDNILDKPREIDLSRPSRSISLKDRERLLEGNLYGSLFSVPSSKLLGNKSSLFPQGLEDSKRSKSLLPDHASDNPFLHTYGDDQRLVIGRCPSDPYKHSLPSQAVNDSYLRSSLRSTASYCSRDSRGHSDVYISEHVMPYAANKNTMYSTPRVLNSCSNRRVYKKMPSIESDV

Row | IC50 [1] [µM] | IC50 [2, 4] [µM] | IC50 [3, 5] [µM] | Structure (SMILES) | IC50 [2] [µM] | IC50 [3] [µM]
1 | > 100 | 9 | > 100 | OC(CCc1ccccc1)CN1CCC(Cc2ccccc2)CC1 (stereo not drawn) [Ex. 4, 4-Benzyl-1-[(2-hydroxy-4-phenyl)butyl]piperidine] | – | –
2 | > 100 | 10 | > 100 | c1ccc(OCCCN2CCC(c3ccccc3)CC2)cc1 [Ex. 7, 1-(3-Phenoxypropyl)-4-phenylpiperidine] | – | –
3 | > 100 | 10 | > 100 | c1ccc(OCCCCN2CCC(c3ccccc3)CC2)cc1 [Ex. 9, 1-(4-Phenoxybutyl)-4-phenylpiperidine] | – | –
4 | – | 10 | > 100 | Clc1ccc(OCCN2CCC(Cc3ccccc3)CC2)cc1 [Ex. 11, 4-Benzyl-1-(2-(4-chlorophenoxy)ethyl)piperidine hydrochloride] | – | –
5 | – | 6 | > 100 | O=[N+]([O-])c1ccc(OCCN2CCC(Cc3ccccc3)CC2)cc1 [Ex. 12, 4-Benzyl-1-(2-(4-nitrophenoxy)ethyl)piperidine hydrobromide] | – | –
6 | – | 3 | > 100 | N#Cc1ccc(OCCN2CCC(Cc3ccccc3)CC2)cc1 [Ex. 14, 4-Benzyl-1-(2-(4-cyanophenoxy)ethyl)piperidine] | – | –
7 | – | 3 | > 100 | CCOC(=O)Cc1cccc(OCCN2CCC(Cc3ccccc3)CC2)c1 [Ex. 17, 4-Benzyl-1-(2-(3-(ethoxycarbonylmethyl)phenoxy)ethyl)piperidine] | – | –
8 | 5.5 | 0.7 | > 100 | NNC(=O)Cc1cccc(OCCN2CCC(Cc3ccccc3)CC2)c1 [Ex. 20, 4-Benzyl-1-(2-(3-(hydrazinocarbonylmethyl)phenoxy)ethyl)piperidine] | – | –
9 | 45 | 2.5 | > 100 | CC(COc1ccccc1)N1CCC(Cc2ccccc2)CC1 (stereo not drawn) [Ex. 21, 4-Benzyl-1-(1-methyl-2-phenoxyethyl)piperidine hydrobromide] | – | –
10 | – | 12 | > 100 | Clc1ccc(CC2CCN(CCOc3ccc(Cl)cc3)CC2)cc1 [Ex. 26, 4-(4-Chlorobenzyl)-1-(2-(4-chlorophenoxyethyl)piperidine hydrochloride] | – | –
11 | – | 0.5 | > 100 | OCCc1cccc(OCCN2CCC(Cc3ccc(Cl)cc3)CC2)c1 [Ex. 29, 4-(4-Chlorobenzyl)-1-(2-(3-(2-hydroxyethyl)phenoxy)ethyl)piperidine] | – | –
12 | – | 15 | > 100 | Fc1ccc(CC2CCN(CCOc3ccc(Cl)cc3)CC2)cc1 [Ex. 34, 4-(4-Fluorobenzyl)-1-(2-(4-chlorophenoxy)ethyl)piperidine hydrochloride] | – | –
13 | – | 4 | > 100 | COc1ccc(CC2CCN(CCOc3ccc(F)cc3)CC2)cc1 [Ex. 35, 1-(2-(4-Fluorophenoxy)ethyl)-4-(4-methoxybenzyl)piperidine hydrochloride] | – | –
14 | 40 | 22 | > 100 | O=[N+]([O-])c1ccc(CC2CCN(CCOc3ccc(F)cc3)CC2)cc1 [Ex. 36, 1-(2-(4-Fluorophenoxy)ethyl)-4-(4-nitrobenzyl)piperidine hydrobromide] | – | –
15 | 14 | 10 | > 100 | O=[N+]([O-])c1ccc(CC2CCN(CCCOc3ccccc3)CC2)cc1 [Ex. 37, 4-(4-Nitrobenzyl)-1-(3-phenoxypropyl)piperidine hydrobromide] | – | –
16 | – | 60 | > 100 | Fc1ccc(NC2CCN(CCOc3ccc(F)cc3)CC2)cc1 [Ex. 39, 1-(2-(4-Fluorophenoxy)ethyl)-4-(N-(4-fluoroanilino)piperidine hydrochloride] | – | –
17 | – | 1.5 | > 100 | OC1CN(CCCOc2ccccc2)CCC1c1cccc(C(F)(F)F)c1 (stereo not drawn) [Ex. 46, 3-Hydroxy-1-(3-phenoxypropyl)-4-(3-trifluoromethylphenyl)piperidine hydrochloride] | – | –
18 | – | 22 | > 100 | OC1(Cc2ccccc2)CCN(CCCOc2ccccc2)CC1 [Ex. 48, 4-Benzyl-4-hydroxy-1-(3-phenoxypropyl)piperidine] | – | –
19 | – | – | – | ClCCN1CCC(Cc2ccccc2)CC1 [Ex. 49, 4-Benzyl-1-(2-chloroethyl)piperidine] | 5 | > 100
20 | – | 6 | > 100 | O=[N+]([O-])c1ccccc1OCCN1CCC(Cc2ccccc2)CC1 [Ex. 60, 4-Benzyl-1-[2-(2-nitrophenoxy)ethyl]piperidine] | – | –
21 | – | 5 | > 100 | COc1ccccc1OCCN1CCC(Cc2ccccc2)CC1 [Ex. 68, 4-Benzyl-1-[2-(2-methoxyphenoxy)ethyl]piperidine] | – | –
22 | – | 20 | > 100 | CC(=O)Nc1ccc(OCCN2CCC(Cc3ccccc3)CC2)cc1NC(C)=O [Ex. 71A, 4-Benzyl-1-[2-(3,4-bisacetamidophenoxy)ethyl]piperidine] | – | –
23 | – | 8 | > 100 | Cc1nc2cc(OCCN3CCC(Cc4ccccc4)CC3)ccc2[nH]1 [Ex. 71C, 4-Benzyl-1-[2-(2-methylbenzimidazol-5-oxy)ethyl]piperidine] | – | –
24 | – | 22 | > 100 | OC1(Cc2ccccc2)CCN(CCCc2ccccc2)CC1 [Ex. 91, 4-Benzyl-4-hydroxy-1-(3-phenylpropyl)piperidine hydrochloride] | – | –
25 | 80 | 28 | – | Fc1ccc(OCCN2CCC(Cc3ccc4c(c3)CCCC4)CC2)cc1 [Ex. 140, 1-(2-(4-Fluorophenoxy)ethyl)-4-((5,6,7,8-tetrahydro-2-naphthyl)methyl)piperidine hydrochloride] | – | –
26 | – | 0.1 | 90 | Oc1ccc(OCCN2CCC(Cc3ccc4ccccc4c3)CC2)cc1 [Ex. 141, 1-(2-(4-Hydroxyphenoxy)ethyl)-4-((2-naphthyl)methyl)piperidine hydrochloride] | – | –
27 | – | 0.3 | 190 | Oc1ccccc1OCCN1CCC(Cc2ccc(F)cc2)CC1 [Ex. 158, 4-(4-Fluorobenzyl)-1-[2-(2-hydroxyphenoxy)ethyl]piperidine hydrochloride] | – | –
28 | – | 0.12 | > 300 | Oc1ccc(OCCN2CCC(O)(Cc3ccccc3)CC2)cc1 [Ex. 164, 4-Benzyl-4-hydroxy-1-[2-(4-hydroxyphenoxy)ethyl]piperidine hydrochloride] | – | –
29 | – | 0.2 | > 300 | Cn1c(=O)[nH]c2ccc(OCCN3CCC(Cc4ccccc4)CC3)cc21 [Ex. 193, 4-Benzyl-1-(2-(3-methyl-2-oxobenzamidazol-5-oxy)ethyl)piperidine] | – | –

Row | Structure (SMILES) | IC50 [1] [µM] | IC50 [2, 4] [µM] | IC50 [3, 5] [µM] | IC50 [2] [µM] | IC50 [3] [µM]
30 | c1ccc(CC2CCN(CCOc3ncnc4ccccc34)CC2)cc1 [Ex. 66] | – | 10 | > 100 | – | –
31 | c1ccc(CCCN2CCC(Cc3ccccc3)CC2)cc1 [Ex. 84, 4-Benzyl-1-(3-phenylpropyl)piperidine hydrochloride] | – | 2.2 | > 100 | – | –
